Patent US5034391A, “Piperazinylalkyl-3(2H)-pyridazinones and the use thereof as agents lowering blood pressure” (CL Pharma Aktiengesellschaft, priority 1988, dated 1991)

Experiments:
[1] = Solubility of the isolated salt in water (remark in the preparation examples); assay type: physicochemical; conditions: hydrochloride / dihydrochloride salt
alpha1 adrenoceptors = target: T1, alpha1 adrenoceptors (Rattus norvegicus, UniProt P15823); assay: Affinity for alpha1 adrenoceptors: displacement of tritiated prazosin on rat cardiac membranes; assay type: binding; conditions: Ki from IC50 by Cheng and Prusoff, read-out: Inhibition constants at alpha-1-adrenoceptor (Ki)
T1 construct: from tissue; host or cells: rat cardiac membranes
T1 sequence (P15823 1-515): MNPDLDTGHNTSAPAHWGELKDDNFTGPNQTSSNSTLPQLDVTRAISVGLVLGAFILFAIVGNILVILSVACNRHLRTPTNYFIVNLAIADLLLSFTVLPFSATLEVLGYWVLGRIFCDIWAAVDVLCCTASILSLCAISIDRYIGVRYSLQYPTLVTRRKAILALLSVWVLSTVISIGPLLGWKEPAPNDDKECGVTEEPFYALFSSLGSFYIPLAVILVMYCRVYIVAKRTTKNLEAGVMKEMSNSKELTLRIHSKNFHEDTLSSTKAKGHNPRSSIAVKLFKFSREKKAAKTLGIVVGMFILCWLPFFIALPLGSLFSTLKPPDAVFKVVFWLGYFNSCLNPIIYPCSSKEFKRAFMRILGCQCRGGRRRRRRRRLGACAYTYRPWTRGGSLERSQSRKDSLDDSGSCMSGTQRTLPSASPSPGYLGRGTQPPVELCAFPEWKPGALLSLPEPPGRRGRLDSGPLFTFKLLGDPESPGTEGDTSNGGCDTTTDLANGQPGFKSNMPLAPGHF
Method: The affinity of compounds of the general formula I for alpha1 adrenoceptors was established using the method described by R. S. Williams, D. F. Dukes and […] in J. Cardiovasc. Pharmacol. 3, 522-531 (1981). In this method the competitive displacement of tritiated prazosin (2-(4-(2-furoyl)-1-piperazinyl)-4-amino-6,7-dimethoxy-quinazoline) on rat-cardiac membranes by the test substances is measured, and the IC50 (50% inhibition concentration) is determined as that concentration which brings about a 50% inhibition of the specific binding of tritiated prazosin to the alpha1 adrenoceptors in rat cardiac membranes.
The concentration-independent inhibitor constants K1 -alpha1 were determined from the IC50 values as stated by Y. Cheng and H. W.Prusoff in Biochem. Pharmacol. 22, 3099-3108 (1973).

5-HT-1A receptors = target: T2, 5-HT-1A receptors (Rattus norvegicus, UniProt P19327); assay: Affinity for 5-HT-1A receptors: displacement of tritiated 8-OH-DPAT on rat brain membranes; assay type: binding; conditions: Ki from IC50 by Cheng and Prusoff, read-out: Inhibition constants at 5-HT1A-receptor (Ki)
T2 construct: 5-HT-1A receptors in rat brain membranes; from tissue; host or cells: rat brain membranes
T2 sequence (P19327 1-422): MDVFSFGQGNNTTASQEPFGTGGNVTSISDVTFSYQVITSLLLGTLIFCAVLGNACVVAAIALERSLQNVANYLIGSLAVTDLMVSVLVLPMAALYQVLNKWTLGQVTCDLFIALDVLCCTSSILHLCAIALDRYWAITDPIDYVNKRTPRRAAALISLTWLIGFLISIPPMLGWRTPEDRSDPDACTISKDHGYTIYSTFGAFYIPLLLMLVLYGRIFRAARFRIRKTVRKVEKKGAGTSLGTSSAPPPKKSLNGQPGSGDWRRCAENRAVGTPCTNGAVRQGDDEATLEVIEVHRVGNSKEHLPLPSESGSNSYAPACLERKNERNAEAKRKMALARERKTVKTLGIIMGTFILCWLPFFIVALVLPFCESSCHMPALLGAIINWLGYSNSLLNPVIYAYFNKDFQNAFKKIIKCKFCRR
Method: The affinity of compounds of the general formula I for 5-HT-1A receptors was determined by the method described by H. Gozlan, S. Elmestikawy, L. Pichat, J. Glowinski and M. Hamon in Nature 305, 140-142 (1983). In this method the competitive displacement of tritiated 8-OH-DPAT (8-hydroxy-(di-n-propylamino)tetralin) on rat brain membranes by the test substances is measured, and the IC50 (50% inhibition concentration) is determined as that concentration which brings about a 50% inhibition of the specific binding of tritiated 8-OH-DPAT to 5-HT-1A receptors in rat brain membranes.
The concentration-independent inhibitor constants K1 -alpha1 and K1 -5HT-1A were determined from the IC50 values as stated by Y. Cheng and H. W. Prusoff in Biochem. Pharmacol. 22, 3099-3108 (1973).

In the case of `CC(C)(C)n1ncc(Cl)c(NCCN2CCN(c3cccc(C(F)(F)F)c3)CC2)c1=O`, the solubility in water [1] is reported as “readily soluble in water”.
In the case of `COc1ccccc1N1CCN(CCCCCCNc2c(Cl)cnn(C)c2=O)CC1` [2-methyl-5-chloro-4-((6-(4-(2-methoxyphenyl)-1-piperazinyl)hexyl)amino)-3(2H)-pyridazinone], the solubility in water [1] is reported as “soluble in water”.
`COc1cc(C)ccc1N1CCN(CCNc2c(Cl)cnn(C)c2=O)CC1` [2-Methyl-5-chloro-4-((2-(4-(2-methoxy-4-methylphenyl)piperazinyl-1)ethyl)amino)-3(2H)-pyridazinone] gave a Ki (alpha1 adrenoceptors) of 0.0224 µM and a Ki (5-HT-1A receptors) of 0.126 µM.
With `Cc1cccc(C)c1N1CCN(CCNc2c(Cl)cnn(C)c2=O)CC1` [2-methyl-5-chloro-4-((2-(4-(2,6-dimethylphenyl)-1-piperazinyl)ethyl)amino)-3(2H)-pyridazinone] the solubility in water [1] was “readily soluble in water”.
`COc1ccccc1N1CCN(CCCNc2cc(=O)n(C)c(=O)n2C)CC1` [URAPIDIL, reference compound] showed a Ki (alpha1 adrenoceptors) of 0.11 µM and a Ki (5-HT-1A receptors) of 0.0931 µM.
Work on `COc1ccccc1N1CCN(CCNc2c(Cl)cnn(C)c2=O)CC1` [2-Methyl-5-chloro-4-((2-(4-(2-methoxyphenyl)-1-piperazinyl)ethyl)amino)-3(2H)-pyridazinone] yielded a Ki (alpha1 adrenoceptors) of 0.0015 µM and a Ki (5-HT-1A receptors) of 0.0166 µM.
For `COc1ccccc1N1CCN(CCNc2c(Cl)cnn(C(C)(C)C)c2=O)CC1` [2-t-Butyl-5-chloro-4-((2-(4-(2-methoxyphenyl)piperazinyl-1)ethyl)amino)-3(2H)-pyridazinone], the Ki (alpha1 adrenoceptors) was 0.0422 µM and the Ki (5-HT-1A receptors) was 0.00945 µM.
For `COc1ccccc1N1CCN(CCNc2cnn(CCO)c(=O)c2Cl)CC1` [2-Hydroxyethl-4-chloro-5-((2-(4-(2-methoxyphenyl)piperazinyl-1-)ethyl)amino-3(2H)-pyridazinone], the Ki (alpha1 adrenoceptors) was 0.0108 µM and the Ki (5-HT-1A receptors) was 0.0863 µM.
Compound `COc1cc(C)ccc1N1CCN(CCNc2ccnn(C)c2=O)CC1` [2-Methyl-4-((2-(4-(2-methoxy-4-methylphenyl)piperazinyl-1)ethyl)amino)-3(2H)-pyridazinone] has a Ki (alpha1 adrenoceptors) of 0.171 µM and a Ki (5-HT-1A receptors) of 0.272 µM.
`COc1ccccc1N1CCN(CCNc2cnn(C)c(=O)c2Br)CC1` [2-methyl-4-bromo-5-((2-(4-(2-methoxyphenyl)-1-piperazinyl)ethyl)amino)-3(2H)-pyridazinone] showed a Ki (alpha1 adrenoceptors) of 0.00588 µM and a Ki (5-HT-1A receptors) of 0.0336 µM.
With `COc1ccccc1N1CCN(CCNc2cnn(-c3ccccc3)c(=O)c2Cl)CC1` [2-Phenyl-4-chloro-5-((2-(4-(2-methoxyphenyl)piperazinyl-1)ethyl)amino)-3(2H)-pyridazinone] the Ki (alpha1 adrenoceptors) was 0.00448 µM and the Ki (5-HT-1A receptors) was 0.0758 µM.
For `Cn1ncc(NCCN2CCN(c3cccc(C(F)(F)F)c3)CC2)c(Cl)c1=O` [2-Methyl-4-chloro-5-((2-(4-(3-trifluoromethylphenyl)piperazinyl-1)ethyl)amino-3(2H)-pyridazinone], the Ki (alpha1 adrenoceptors) was 0.0942 µM and the Ki (5-HT-1A receptors) was 0.0285 µM.
`CCN(CCN1CCN(c2ccccc2OC)CC1)c1ccnn(C)c1=O` [2-Methyl-4-(ethyl-(2-(4-(2-methoxyphenyl)piperazinyl-1)ethyl)amino)-3(2H)-pyridazinone] showed a Ki (alpha1 adrenoceptors) of 0.068 µM and a Ki (5-HT-1A receptors) of 0.0407 µM.
For `COc1ccccc1N1CCN(CCNc2cc(Cl)nn(C)c2=O)CC1` [2-Methyl-6-chloro-4-((2-(4-(2-methoxyphenyl)piperazinyl-1)ethyl)amino)-3(2H)-pyridazinone], the Ki (alpha1 adrenoceptors) was 0.00563 µM and the Ki (5-HT-1A receptors) was 0.0284 µM.
With `COc1ccccc1N1CCN(CCCCCCNc2cnn(C)c(=O)c2Cl)CC1` [2-Methyl-4-chloro-5-((6-(4-(2-methoxyphenyl)-1-piperazinyl)hexyl)amino)-3(2H)-pyridazinone] the solubility in water [1] was “soluble in water”.
`COc1ccccc1N1CCN(CCCNc2cc(Cl)nn(C)c2=O)CC1` [2-Methyl-6-chloro-4-((3-(4-(2-methoxyphenyl)-1-piperazinyl)propyl)amino)-3(2H)-pyridazinone] gave a Ki (alpha1 adrenoceptors) of 0.011 µM and a Ki (5-HT-1A receptors) of 0.0466 µM.
`CCOc1ccccc1N1CCN(CCNc2cnn(C)c(=O)c2Cl)CC1` [2-Methyl-4-chloro-5-((2-(4-(2-ethoxyphenyl)piperazinyl-1)ethyl)amino)-3(2H)-pyridazinone] showed a Ki (alpha1 adrenoceptors) of 0.00759 µM and a Ki (5-HT-1A receptors) of 0.0368 µM.
Work on `COc1ccccc1N1CCN(CCNc2ccnn(CCO)c2=O)CC1` [2-Hydroxyethyl-4-((2-(4-(2-methoxyphenyl)piperazinyl-1)ethyl)amino)-3(2H)-pyridazinone] yielded a Ki (alpha1 adrenoceptors) of 0.0177 µM and a Ki (5-HT-1A receptors) of 0.0182 µM.
`COc1ccc(C)cc1N1CCN(CCNc2cnn(C)c(=O)c2)CC1` [2-Methyl-5-((2-(4-(2-methoxy-5-methylphenyl)piperazinyl-1)ethyl)amino)-3(2H)-pyridazinone] gave a Ki (alpha1 adrenoceptors) of 0.0826 µM and a Ki (5-HT-1A receptors) of 0.523 µM.
In the case of `Cc1cccc(C)c1N1CCN(CCNc2cnn(C)c(=O)c2Cl)CC1` [2-methyl-4-chloro-5-((2-(4-(2,6-dimethylphenyl)-1-piperazinyl)ethyl)amino)-3(2H)-pyridazinone], the solubility in water [1] is reported as “readily soluble in water”.
`Cn1ncc(Cl)c(NCCN2CCN(c3ccccc3)CC2)c1=O` [2-Methyl-5-chloro-4-((2-(4-phenylpiperazinyl-1)ethyl)amino)-3(2H)-pyridazinone] gave a Ki (alpha1 adrenoceptors) of 0.0867 µM and a Ki (5-HT-1A receptors) of 0.519 µM.
`COc1ccccc1N1CCN(CCNc2c(OC)cnn(C)c2=O)CC1` [5-Methoxy-2-methyl-4-((2-(4-(2-methoxyphenyl)-1-piperazinyl)ethyl)amino)-3(2H)-pyridazinone] showed a Ki (alpha1 adrenoceptors) of 0.00783 µM and a Ki (5-HT-1A receptors) of 0.0908 µM.
`Cn1ncc(Cl)c(NCCN2CCN(c3ccccc3F)CC2)c1=O` [2-Methyl-5-chloro-4-((2-(4-(2-fluorophenyl)piperazinyl-1)ethyl)amino-3(2H)-pyridazinone] showed a Ki (alpha1 adrenoceptors) of 0.00251 µM and a Ki (5-HT-1A receptors) of 0.0808 µM.
For `COc1ccccc1N1CCN(CCNc2cnn(C)c(=O)c2)CC1` [2-Methyl-5-((2-(4-(2-methoxyphenyl)-1-piperazinyl)ethyl)amino)-3(2H)-pyridazinone], the Ki (alpha1 adrenoceptors) was 0.19 µM and the Ki (5-HT-1A receptors) was 0.0436 µM.
`COc1ccccc1N1CCN(CCNc2cn[nH]c(=O)c2Cl)CC1` [4-Chloro-5-((2-(4-(2-methoxyphenyl)-1-piperazinyl)ethyl)amino)-3(2H)-pyridazinone] showed a Ki (alpha1 adrenoceptors) of 0.00543 µM and a Ki (5-HT-1A receptors) of 0.027 µM.
Compound `COc1ccccc1N1CCN(CCCNc2cnn(C)c(=O)c2Cl)CC1` [2-Methyl-4-chloro-5-((3-(4-(2-methoxyphenyl)-1-piperazinyl)propyl)amino)-3(2H)-pyridazinone] has a Ki (alpha1 adrenoceptors) of 0.0322 µM and a Ki (5-HT-1A receptors) of 0.0507 µM.
With `COc1ccc(C)cc1N1CCN(CCNc2cnn(C)c(=O)c2Cl)CC1` [2-Methyl-4-chloro-5-((2-(4-(2-methoxy-5-methylphenyl)piperazinyl-1)ethyl)amino)-3(2H)-pyridazinone] the Ki (alpha1 adrenoceptors) was 0.00698 µM and the Ki (5-HT-1A receptors) was 0.51 µM.
`Cn1ncc(Cl)c(NCCN2CCN(c3cccc(C(F)(F)F)c3)CC2)c1=O` [2-Methyl-5-chloro-4-((2-(4-(3-trifluoromethylphenyl)piperazinyl-1)ethyl)amino-3(2H)-pyridazinone] gave a Ki (alpha1 adrenoceptors) of 0.0473 µM and a Ki (5-HT-1A receptors) of 0.00831 µM.
With `CC(C)(C)n1ncc(NCCN2CCN(c3cccc(C(F)(F)F)c3)CC2)c(Cl)c1=O` the solubility in water [1] was “readily soluble in water”.
